What was measured:
[1] = tested on: mouse hepatoma cells (Hepa1-6) xenograft; assay: subcutaneous tumorigenicity assay, tumor size (Example 1); assay type: in vivo
Experimental: 3. Detection of the effects of different doses of lenvatinib on hepatoma xenograft by subcutaneous tumorigenicity assay of immunocompetent C57B/L mice. (1) Separately, 1×10^6 mouse hepatoma cells (Hepa1-6) were implanted into the subcutaneous stratum of the armpits of 20 […] mice aged 3-4 weeks. The mice were randomized into four groups: a blank control group, a 3 mg/kg/day lenvatinib group, a 10 mg/kg/day lenvatinib group, and a 30 mg/kg/day lenvatinib group. (2) When the size of the subcutaneous tumor reached 100-200 mm^3: each mouse of the 3 mg/kg/day lenvatinib group was orally administered with 3 mg/kg/day lenvatinib by gastric gavage once a day; each mouse of the 10 mg/kg/day lenvatinib group was orally administered with 10 mg/kg/day lenvatinib by gastric gavage once a day; and each mouse of the 30 mg/kg/day lenvatinib group was orally administered with 30 mg/kg/day lenvatinib by gastric gavage once a day. According to the existing literature, 30 mg/kg was a routine dose of lenvatinib (Selleck) for laboratory mice. (3) The tumor size was measured every two days, and the difference in tumor size was compared among groups.

[2] = tested on: CD8-positive T cells in Hepa1-6 tumor tissue; assay: flow cytometry of CD45/CD8-positive cells in resected tumor tissue (Example 1); assay type: in vivo, mouse; details: 10 mg/kg/day, after 3 weeks
Experimental: (§1) (1) Separately, 1×10^6 mouse hepatoma cells (Hepa1-6) were implanted into the subcutaneous stratum of the armpits of 20 […] mice aged 3-4 weeks. The mice were randomized into four groups: a blank control group, a 3 mg/kg/day lenvatinib group, a 10 mg/kg/day lenvatinib group, and a 30 mg/kg/day lenvatinib group. (2) When the size of the subcutaneous tumor reached 100-200 mm^3: each mouse of the 3 mg/kg/day lenvatinib group was orally administered with 3 mg/kg/day lenvatinib by gastric gavage once a day; each mouse of the 10 mg/kg/day lenvatinib group was orally administered with 10 mg/kg/day lenvatinib by gastric gavage once a day; and each mouse of the 30 mg/kg/day lenvatinib group was orally administered with 30 mg/kg/day lenvatinib by gastric gavage once a day. According to the existing literature, 30 mg/kg was a routine dose of lenvatinib (Selleck) for laboratory mice. (4) After 3 weeks, the mice were sacrificed, tumor tissues were resected, a part of fresh tumor tissue was separated and ground into a single cell suspension, and the proportion of positive cells labeled with CD45 and CD8 was detected by flow cytometry; meanwhile, the other part of tumor tissue was fixed and embedded, and vascular markers (CD31, α-SMA, and VEGFR2) and CD8-positive T cell infiltration were detected by immunohistochemistry.

[3] = tested on: mouse hepatoma cells (Hepa1-6) xenograft; assay: subcutaneous tumorigenicity assay, lenvatinib plus anti-PD-1 monoclonal antibody (Example 2); assay type: in vivo; details: for growth of hepatoma xenograft: oral gavage, 3 weeks
Description: Detection of the effects of different doses of lenvatinib plus anti-PD-1 monoclonal antibody on hepatoma xenograft by subcutaneous tumorigenicity assay of immunocompetent C57B/L mice.
(1) Separately, 1×10^6 mouse hepatoma cells (Hepa1-6) were implanted into the subcutaneous stratum of the armpits of 24 C57B/L mice aged 3-4 weeks. The mice were randomized into six groups: The mice were randomized into six groups: a blank control group, an anti-PD-1 monoclonal antibody alone group, a low-dose lenvatinib group, a high-dose lenvatinib group, a low-dose lenvatinib+anti-PD-1 monoclonal antibody group, and a high-dose lenvatinib+anti-PD-1 monoclonal antibody group.
(2) When the size of the subcutaneous tumor reached 100-200 mm^3: each mouse of the anti-PD-1 monoclonal antibody alone group was intraperitoneally administered with 200 μg of anti-PD-1 monoclonal antibody every three days; each mouse of the low-dose lenvatinib group was orally administered with 10 mg/kg/day lenvatinib by gastric gavage once a day; each mouse of the high-dose lenvatinib group was orally administered with 30 mg/kg/day lenvatinib by gastric gavage once a day; each mouse of the low-dose lenvatinib group+anti-PD-1 monoclonal antibody was orally administered with 10 mg/kg/day lenvatinib by gastric gavage once a day and intraperitoneally administered with 200 μg of anti-PD-1 monoclonal antibody every three days; and each mouse of the high-dose lenvatinib group+anti-PD-1 monoclonal antibody was orally administered with 30 mg/kg/day lenvatinib by gastric gavage once a day and intraperitoneally administered with 200 μg of anti-PD-1 monoclonal antibody every three days.
(4) After 3 weeks, the mice were sacrificed, and data statistics and reduction were conducted.

[4] = tested on: CD31, NG2, CD8 in Hepa1-6 tumor tissue; assay: immunohistochemistry of vascular markers and CD8-positive T cell infiltration in tumor tissue (Example 1); assay type: in vivo, mouse
Experimental: as §1

COc1cc2nccc(Oc3ccc(NC(=O)NC4CC4)c(Cl)c3)c2cc1C(N)=O [lenvatinib]
difference in tumor growth among the three dose groups ([1]; 3 vs 10 vs 30 mg/kg/day lenvatinib): no significant difference | growth of hepatoma xenograft (tumor size) ([1]; all three doses 3, 10, 30 mg/kg/day, oral gavage once a day, 3 weeks): inhibit the growth of hepatoma xenograft | percentage of CD8-positive T cells in the tumor tissue [2]: significantly increased | difference in tumor growth between low-dose and high-dose groups ([3]; 10 vs 30 mg/kg/day lenvatinib alone): no significant difference | growth of hepatoma xenograft ([3]; high-dose lenvatinib 30 mg/kg/day): inhibit the growth of hepatoma xenograft | growth of hepatoma xenograft ([3]; low-dose lenvatinib 10 mg/kg/day): inhibit the growth of hepatoma xenograft | infiltrating CD8-positive T cells in the tumor tissue ([4]; 10 mg/kg/day): significantly increased | expression of peripheral cell marker molecule NG2 ([4]; 10 mg/kg/day only): upregulation | vascular normalization in tumor tissue ([4]; 10 mg/kg/day only): significantly improve vascular normalization | microvessel density (CD31) in hepatoma tissue ([4]; all three doses 3, 10, 30 mg/kg/day): significantly reduce

— patent publication US20230201342A1, “USE OF LENVATINIB PLUS ANTI-PD-1 MONOCLONAL ANTIBODY IN PREPARATION OF ANTI-HEPATOMA DRUG” (Guangzhou X Cell Therapy Biomedical Tech Co., Ltd, priority 2021, published 2023)
